Laboratory results taken from patent publication US20150299659A1, “MUSCLE CELL PRODUCTION” (Monash University, priority 2014, published 2015).

Key:
Format in all cases: cell-based, human
hPSCs [1] = experiment: FACS quantification of myogenic cell populations from differentiated hPSCs; settings: for percentage of CXCR4+/C-MET+ and ACHR+ populations compared to CHIR+FGF2 cultures: single-agent conditions (CHIR only or FGF2 only)
Description: (§1) Experiments were performed using all four hPSC lines. When colony size reached >600 μm in diameter and colony density on the plate was approximately 30-40%, we induced differentiation of hPSC by switching the culture medium from mTESR1 to a chemically defined, serum-free medium DMEM-F12 supplemented with insulin-transferrin-selenium (ITS) (all from Sigma-Aldrich, St. Louis, Mo.). Starting at day 0 of differentiation, cells were cultured in the presence of 3 μM CHIR 99021 (Miltenyi Biotech, Auburn, Calif.) for 4 days. Culture medium was then replaced by ITS containing 20 ng/ml of FGF2 (Miltenyi Biotech) for a further 14 days. For each experimental control condition, hPSCs differentiation was induced as follows: 1) CHIR only: ITS medium containing 3 μM CHIR from days 0-4, followed by ITS medium only until day of analysis; and 2) FGF2 only: ITS medium only between days 0-4, followed by ITS medium containing 20 ng/ml FGF2 for 14 days. Medium was replaced daily until the day of the analysis.
(§2) Cells were dissociated with 0.05% trypsin or TrypLE Select (Invitrogen, Carlsbad, Calif.) to a single cell suspension and incubated with the appropriate fluorochrome-labelled antibodies (Table 1) at a concentration of 10^7 cells/ml for 30 minutes on ice. Indirect labelling of HNK and ACHR antibodies was done using goat anti-mouse Alexa Fluor 488 and goat anti-mouse PE (both from Molecular Probes, Invitrogen) as secondary antibodies. Labelled cells were sorted through a BD Influx (five lasers) flow sorter (BD Biosciences) according to the excitation requirements of the fluorochromes. Sorted populations were analyzed using FlowJo software (Tree Star Inc., Ashland, Oreg.).
Data were analyzed by two-way analysis of variance (ANOVA) followed by Bonferroni's post-test to calculate p values. Analyses were performed using statistical software (GraphPad Prism 5.04; GraphPad Software, San Diego, Calif.). Probability values <0.05 were considered statistically significant. Error bars in each figure represent the standard error of the mean of three or more individual experiments. For qPCR data, p values were calculated for changes in expression of markers over time compared to day 0. For quantitative analysis of FACS sorting data, the percentage of myogenic cells relative to the total number of cells were obtained for each experimental culture treatment, and p values were calculated for differences between the means of each experimental condition.

hESC HES3 = experiment: Immunocytochemistry of cytospin preparations of sorted cells
Description: as §2
For cytospin preparations of FACS sorted populations, cells were spun onto glass slides using Cytospin 4 (Shandon, Thermofisher, Waltham, Mass.). Cells were then fixed with 100% cold methanol for 5 minutes and subsequently rehydrated in phosphate buffered solution (PBS) for 15-20 minutes. Cultured cells were fixed with 4% paraformaldehyde for 10 minutes at room temperature and permeabilized with 0.3% Triton X-100 in PBS for 30 minutes. A complete list of primary and fluorochrome-labelled secondary antibodies used in this study is provided in the Supporting Information (Table 1). […] Images were analyzed with Nikon NIS-Elements 3.2 software. […]

hPSCs [2] = experiment: CHIR concentration optimisation for differentiation of hPSCs towards a myogenic phenotype
Description: as §1, with “Starting at day 0 of differentiation, cells were cultured in the presence of 3 μM CHIR 99021 (Miltenyi Biotech, Auburn, Calif.) for 4 days.” left out, “analysis. Human PSCs were first exposed to 3 μM CHIR for 4 days, and then the small molecule was replaced with 20 ng/ml of FGF2 for an additional 2 weeks (FIG. 2A). To optimize the differentiation of hPSCs towards a myogenic phenotype, different CHIR concentrations were tested. […] The FGF signaling pathway has been identified to regulate several developmental processes of muscle formation. […]” for “analysis.”

hPSCs [3] = experiment: Immunocytochemical quantification of muscle cells in unsorted hPSC cultures; settings: exposure to CHIR for up to 10 days
Description: as §1, with “Starting at day 0 of differentiation, cells were cultured in the presence of 3 μM CHIR 99021 (Miltenyi Biotech, Auburn, Calif.) for 4 days.” left out, “Medium was replaced daily until the day of the analysis.” left out
For cytospin preparations of FACS sorted populations, cells were spun onto glass slides using Cytospin 4 (Shandon, Thermofisher, Waltham, Mass.). […] Images were analyzed with Nikon NIS-Elements 3.2 software. […]
Following withdrawal of FGF2 and a further 17 days of culture in ITS medium alone areas with skeletal muscle cells were scored in treated culture dishes, prior to FACS analysis and identified by immunocytochemistry as PAX3+ and PAX7+ precursors (FIG. 2B) (Relaix et al (2005) Nature 435:948-953) and bipolar skeletal myocytes, positive for myogenin and sarcomeric myosin (MF20) (FIG. 2C).

hESC (HES3) = experiment: RT-PCR and marker analysis of dorsal tissue and endoderm in differentiating hPSCs
Description: For cytospin preparations of FACS sorted populations, cells were spun onto glass slides using Cytospin 4 (Shandon, Thermofisher, Waltham, Mass.). Cells were then fixed with 100% cold methanol for 5 minutes and subsequently rehydrated in phosphate buffered solution (PBS) for 15-20 minutes. Cultured cells were fixed with 4% paraformaldehyde for 10 minutes at room temperature and permeabilized with 0.3% Triton X-100 in PBS for 30 minutes. A complete list of primary and fluorochrome-labelled secondary antibodies used in this study is provided in the Supporting Information (Table 1). Incubations with primary and subsequently secondary antibodies were performed in Incubation Buffer (0.1% BSA, 2% FBS, 0.1% Triton X-100 in PBS) for 40 minutes at 37° C. Image acquisition was performed on an inverted Nikon Eclipse Ti epifluorescence microscope with the appropriate filter sets using single channel acquisition on a Nikon Digital sight DS-U2 camera. Images were analyzed with Nikon NIS-Elements 3.2 software. All immunofluorescence images are representative of one individual experiment. […]
Total RNA was extracted using RNeasy Mini kit (Qiagen, Hilden, Germany), and DNAse I treatment (Qiagen) was performed to avoid genomic DNA contamination. […] The inventors optimized the PCR conditions and determined the linear amplification range for each primer by varying annealing temperature and cycle number. […]

Row | Compound | cell fate of CXCR4+/C-MET− and CXCR4−/C-MET+ fractions compared to CHIR+FGF2 (hPSCs [1]; FGF2 only, absence of CHIR treatment) | percentage of CXCR4+/C-MET+ and ACHR+ populations compared to CHIR+FGF2 cultures (hPSCs [1]) | phenotype of sorted CXCR4+/C-MET− cells (hESC HES3) | phenotype of sorted CXCR4−/C-MET+ cells (hESC HES3) | toxicity to differentiating hPSCs (hPSCs [2]; CHIR concentration >3 μM) | induction of myogenic phenotype (hPSCs [2]; CHIR doses of <3 μM) | muscle derivation after prolonged exposure (hPSCs [3]) | myogenic induction of hPSCs (hPSCs [1]; CHIR only, 3 μM days 0-4, then ITS medium only) | expression of dorsal markers SOX10 and LMX1a (RT-PCR) (hESC (HES3); day 10 of hESC (HES3) differentiation) | generation of endoderm cells (hESC (HES3); lack of specific endodermal markers in the cultures)
1 | FGF2: fibroblast growth factor, used at 20 ng/ml to expand the muscle precursor compartment | fundamental shift from a myogenic to a non-myogenic cell fate | almost complete loss | complete switch towards SOX1 expression | PAX3+ and PAX7+ cells are not present |  |  |  |  |  | 
2 | Cc1c[nH]c(-c2cnc(NCCNc3ccc(C#N)cn3)nc2-c2ccc(Cl)cc2Cl)n1 [CHIR, CHIR 99021] |  | Reduction in the percentage |  |  | High toxicity | inefficient induction | no muscle cells were identified | sufficient for myogenic induction | expressed only in CHIR (GSK3β inhibitor) treated cells | not permissive for the generation of endoderm cells
